Source: US11358930B2, “Selective potassium channel agonists” (University of Pittsburgh—Of the Commonwealth System of …, priority 2018, dated 2022)
“Also recorded” adds a separate entry of the source.

Legend:
Kv7.2/Kv7.3 = molecular target: T1, Kv7.2/Kv7.3 (Homo sapiens, UniProt O43525+O43526); experiment: Automated electrophysiology IonWorks Barracuda (IWB) agonist assay in HEK293 cells, Kv7.2/Kv7.3; format: cell-based; conditions: for selectivity index SI = EC2x(Kv7.4/Kv7.5)/EC2x(Kv7.2/Kv7.3): higher SI = better selectivity for Kv7.2/Kv7.3; for EC2x at Kv7.2/Kv7.3 (agonist concentration that doubles the conductance at the voltage leading to 15% channel activation): HEK293 cells, IWB, 10-point concentration-response
T1 construct: expressed in transfected cells; host or cells: HEK293
Description: (§1) Biological evaluation of the new analogs, including RL-81 as a positive standard was performed in the Eli Lilly Open Innovation Drug Discovery (OIDD) program (now discontinued; see https://openinnovation.lilly.com/dd/login.jsp). Ion channel agonistic potency was determined in a high-throughput assay using the automated electrophysiology IonWorks® Barracuda™ (IWB) platform (Molecular Devices, LLC) in HEK293 cells. The resulting 10-point concentration-response curves provide a measure of compound efficacy by determining the agonist concentration that doubles the conductance at the voltage leading to 15% channel activation (EC2x).
Since the primary interest was in optimizing central (Kv7.2/Kv7.3) over peripheral Kv7.4/Kv7.5) tissue activities, a selectivity index (SI) was calculated as the inverse ratio of the EC2x values for these two channel types: SI=EC2x(Kv7.4/Kv7.5)/EC2×(Kv7.2/Kv7.3) The higher the SI ratio, the better the selectivity of the agent for the Kv7.2/Kv7.3 channels.

all tested Kv7 channels = experiment: Automated electrophysiology IonWorks Barracuda (IWB) agonist assay in HEK293 cells, all tested Kv7 channels; format: cell-based; conditions: for activity at all Kv7 channel types (in words): HEK293 cells, IWB
Description: as §1

Kv7.4 = molecular target: T2, Kv7.4 (Homo sapiens, UniProt P56696); experiment: Automated electrophysiology IonWorks Barracuda (IWB) agonist assay in HEK293 cells, Kv7.4; format: cell-based
T2 construct: expressed in transfected cells; host or cells: HEK293
Description: as §1

Kv7.4/Kv7.5 = molecular target: T3, Kv7.4/Kv7.5 (Homo sapiens, UniProt P56696+Q9NR82); experiment: Automated electrophysiology IonWorks Barracuda (IWB) agonist assay in HEK293 cells, Kv7.4/Kv7.5; format: cell-based
T3 construct: expressed in transfected cells; host or cells: HEK293
Description: as §1

Kv7.3/Kv7.5 = molecular target: T4, Kv7.3/Kv7.5 (Homo sapiens, UniProt O43525+Q9NR82); experiment: Automated electrophysiology IonWorks Barracuda (IWB) agonist assay in HEK293 cells, Kv7.3/Kv7.5; format: cell-based
T4 construct: expressed in transfected cells; host or cells: HEK293
Description: as §1

KCNQ2/3 = KCNQ2/3 (Homo sapiens, UniProt O43525+O43526); conditions: read-out: EC50 (KCNQ2/3 activator); cited from earlier work

Nc1c(NC(=O)OC2CC2)cc(F)c(NCc2ncc(C(F)(F)F)cc2F)c1F [RL-01, Cyclopropyl (2-amino-3,5-difluoro-4-(((3-fluoro-5-(trifluoromethyl)pyridin-2-yl)methyl)amino)phenyl)carbamate]
selectivity / potency of 2-pyridyl analogs (in words) (Kv7.2/Kv7.3): either low selectivity or low potency

CCOC(=O)Nc1ccc(NCc2cccc(S(F)(F)(F)(F)F)c2)c(F)c1N [RL-02, Ethyl (2-amino-3-fluoro-4-((3-(pentafluoro-λ^6-sulfanyl)benzyl)amino)phenyl)carbamate]
selectivity index SI = EC2x(Kv7.4/Kv7.5)/EC2x(Kv7.2/Kv7.3) (Kv7.2/Kv7.3): 1.8

Nc1c(F)c(NCc2ncc(C(F)(F)F)cc2F)cc(F)c1NC(=O)OC1CC1 [RL-12, Cyclopropyl (2-amino-3,6-difluoro-4-(((3-fluoro-5-(trifluoromethyl)pyridin-2-yl)methyl)amino)phenyl)carbamate]
agonist activity at other channels (in words) (all tested Kv7 channels; channels other than Kv7.2/Kv7.3): no detectable agonist activity
agonist activity at Kv7.4 (in words) (Kv7.4): lacked activity
agonist activity at Kv7.4/Kv7.5 (in words) (Kv7.4/Kv7.5): lacked activity
selectivity index SI = EC2x(Kv7.4/Kv7.5)/EC2x(Kv7.2/Kv7.3) (Kv7.2/Kv7.3): > 10
agonist activity at Kv7.3/Kv7.5 (in words) (Kv7.3/Kv7.5): lacked activity

CCOC(=O)Nc1ccc(NCc2ccc(C(F)(F)F)cc2F)c(F)c1N [RL-18, Ethyl (2-amino-3-fluoro-4-((2-fluoro-4-(trifluoromethyl)benzyl)amino)phenyl)carbamate]
EC2x at Kv7.2/Kv7.3 (agonist concentration that doubles the conductance at the voltage leading to 15% channel activation) (Kv7.2/Kv7.3): 0.18 ± 0.11 µM
selectivity index SI = EC2x(Kv7.4/Kv7.5)/EC2x(Kv7.2/Kv7.3) (Kv7.2/Kv7.3): 1.7

CCOC(=O)Nc1ccc(NCc2ccc(C(F)(F)F)c(C#N)n2)c(F)c1N [RL-23, Ethyl (2-amino-4-(((6-cyano-5-(trifluoromethyl)pyridin-2-yl)methyl)amino)-3-fluorophenyl)carbamate]
selectivity / potency of 2-pyridyl analogs (in words) (Kv7.2/Kv7.3): either low selectivity or low potency

CCOC(=O)Nc1ccc(NCc2ccc(C(F)(F)F)nc2)c(F)c1N [RL-24, Ethyl (2-amino-3-fluoro-4-(((6-(trifluoromethyl)pyridin-3-yl)methyl)amino)phenyl)carbamate]
potency compared to 2-pyridyl isomers RL-31 and RL-68 (in words) (Kv7.2/Kv7.3): essentially equivalent potency
selectivity compared to 2-pyridyl isomers RL-31 and RL-68 (in words) (Kv7.2/Kv7.3): slightly increased selectivity

CCOC(=O)Nc1ccc(NCc2ccc(C(F)(F)F)cn2)c(F)c1N [RL-31, Ethyl (2-amino-3-fluoro-4-(((5-(trifluoromethyl)pyridin-2-yl)methyl)amino)phenyl)carbamate]
selectivity / potency of 2-pyridyl analogs (in words) (Kv7.2/Kv7.3): either low selectivity or low potency

CC(C)OC(=O)Nc1ccc(NCc2ccc(C(F)(F)F)cc2)c(F)c1N [RL-32, Isopropyl (2-amino-3-fluoro-4-((4-(trifluoromethyl)benzyl)amino)phenyl)carbamate]
EC2x at Kv7.4/Kv7.5 (Kv7.4/Kv7.5): 4.98 µM
selectivity index SI = EC2x(Kv7.4/Kv7.5)/EC2x(Kv7.2/Kv7.3) (Kv7.2/Kv7.3): 31
potency at Kv7.2/Kv7.3 compared with RL-81 (more potent) (Kv7.2/Kv7.3; relative to RL-81): slightly increased the potency
SI improvement over RL-81 (Kv7.2/Kv7.3; versus SI=0.3 of RL-81): 100 ×

Nc1c(NC(=O)OC2CC2)cc(F)c(NCc2ccc(C(F)(F)F)cc2F)c1F [RL-36, Cyclopropyl (2-amino-3,5-difluoro-4-((2-fluoro-4-(trifluoromethyl)benzyl)amino)phenyl)carbamate]
agonist activity at Kv7.4 (in words) (Kv7.4): lacked agonist activity
agonist activity at Kv7.4/Kv7.5 (in words) (Kv7.4/Kv7.5): lacked agonist activity
selectivity index SI = EC2x(Kv7.4/Kv7.5)/EC2x(Kv7.2/Kv7.3) (Kv7.2/Kv7.3): > 10
agonist activity at Kv7.3/Kv7.5 (in words) (Kv7.3/Kv7.5): lacked agonist activity

Nc1c(F)c(NCc2ccc(C(F)(F)F)cc2F)cc(F)c1NC(=O)OC1CC1 [RL-46, Cyclopropyl (2-amino-3,6-difluoro-4-((2-fluoro-4-(trifluoromethyl)benzyl)amino)phenyl)carbamate]
activity at all Kv7 channel types (in words) (all tested Kv7 channels): moderately active
selectivity index SI = EC2x(Kv7.4/Kv7.5)/EC2x(Kv7.2/Kv7.3) (Kv7.2/Kv7.3): > 7

Nc1c(F)c(NCc2ccc(C(F)(F)F)cc2F)c(F)c(F)c1NC(=O)OC1CC1 [RL-50, Cyclopropyl (2-amino-3,5,6-trifluoro-4-((2-fluoro-4-(trifluoromethyl)benzyl)amino)phenyl)carbamate]
activity at all Kv7 channel types (in words) (all tested Kv7 channels): lost all activity; also recorded: inactive

Nc1c(NC(=O)OC2CC2)ccc(NCc2ccc(C(F)(F)F)cc2)c1F [RL-56, Cyclopropyl (2-amino-3-fluoro-4-((4-(trifluoromethyl)benzyl)amino)phenyl)carbamate]
EC2x at Kv7.2/Kv7.3 (agonist concentration that doubles the conductance at the voltage leading to 15% channel activation) (Kv7.2/Kv7.3): 0.11 ± 0.02 µM
selectivity index SI = EC2x(Kv7.4/Kv7.5)/EC2x(Kv7.2/Kv7.3) (Kv7.2/Kv7.3): 2.5
potency at Kv7.2/Kv7.3 compared with RL-81 (more potent) (Kv7.2/Kv7.3; relative to RL-81): ca. 3

Nc1c(NC(=O)OC2CC2)ccc(NCc2ccc(C(F)(F)F)nc2)c1F [RL-67, Cyclopropyl (2-amino-3-fluoro-4-(((6-(trifluoromethyl)pyridin-3-yl)methyl)amino)phenyl)carbamate]
potency compared to 2-pyridyl isomers RL-31 and RL-68 (in words) (Kv7.2/Kv7.3): essentially equivalent potency
selectivity compared to 2-pyridyl isomers RL-31 and RL-68 (in words) (Kv7.2/Kv7.3): slightly increased selectivity

Nc1c(NC(=O)OC2CC2)ccc(NCc2ccc(C(F)(F)F)cn2)c1F [RL-68, Cyclopropyl (2-amino-3-fluoro-4-(((5-(trifluoromethyl)pyridin-2-yl)methyl)amino)phenyl)carbamate]
selectivity / potency of 2-pyridyl analogs (in words) (Kv7.2/Kv7.3): either low selectivity or low potency

CCOC(=O)Nc1cc(F)c(NCc2ccc(C(F)(F)F)cc2)cc1N [RL-72, Ethyl (2-amino-5-fluoro-4-((4-(trifluoromethyl)benzyl)amino)phenyl)carbamate]
EC2x at Kv7.4 (Kv7.4): 4.65 µM
EC2x at Kv7.4/Kv7.5 (Kv7.4/Kv7.5): > 10 µM
EC2x at Kv7.2/Kv7.3 (agonist concentration that doubles the conductance at the voltage leading to 15% channel activation) (Kv7.2/Kv7.3): 1.26 µM
selectivity index SI = EC2x(Kv7.4/Kv7.5)/EC2x(Kv7.2/Kv7.3) (Kv7.2/Kv7.3): > 7
reduction of potency (EC2x) at Kv7.2/Kv7.3 versus RL-81 (Kv7.2/Kv7.3; relative to RL-81): 5 fold
EC2x at Kv7.3/Kv7.5 (Kv7.3/Kv7.5): > 10 µM

CCOC(=O)Nc1ccc(NCc2cccc(C(F)(F)F)c2)c(F)c1N [RL-73, Ethyl (2-amino-3-fluoro-4-((3-(trifluoromethyl)benzyl)amino)phenyl)carbamate]
selectivity index SI = EC2x(Kv7.4/Kv7.5)/EC2x(Kv7.2/Kv7.3) (Kv7.2/Kv7.3): 4.7
potency at Kv7.2/Kv7.3 compared with RL-81 (more potent) (Kv7.2/Kv7.3; relative to RL-81): twice as potent

CCOC(=O)Nc1cc(C(F)(F)F)c(NCc2ccc(C(F)(F)F)cc2)c(F)c1N [RL-073, Ethyl (2-amino-3-fluoro-5-(trifluoromethyl)-4-((4-(trifluoromethyl)benzyl)amino)phenyl)carbamate]
activity at all Kv7 channel types (in words) (all tested Kv7 channels): completely abrogated activity

CCOC(=O)Nc1ccc(NCc2ccc(C(F)(F)F)cc2)c(F)c1N [RL-81, Ethyl (2-amino-3-fluoro-4-((4-(trifluoromethyl)benzyl)amino)phenyl)carbamate]
efficacy versus flupirtine (FP), times higher (all tested Kv7 channels; at all tested Kv7 channels): 8-50 times
efficacy versus retigabine (RG), in words (all tested Kv7 channels; at all tested Kv7 channels): comparable
EC2x at Kv7.4 (Kv7.4): 0.10 µM
EC50 (KCNQ2/3): 260 nM
selectivity index SI = EC2x(Kv7.4/Kv7.5)/EC2x(Kv7.2/Kv7.3) (Kv7.2/Kv7.3): 0.3
EC2x at Kv7.3/Kv7.5 (Kv7.3/Kv7.5): 0.29 µM

CCOC(=O)Nc1ccc(NCc2ccc(F)cc2)nc1N [flupirtine, reference compound]
EC50 (KCNQ2/3): 2000 nM
selectivity index SI = EC2x(Kv7.4/Kv7.5)/EC2x(Kv7.2/Kv7.3) (Kv7.2/Kv7.3): 1.8

CCOC(=O)Nc1ccc(NCc2ccc(F)cc2)cc1N [retigabine]
EC50 (KCNQ2/3): 330 nM
